In patent US10597649B2, “Tau protease compositions and methods of use” (Oligomerix, Inc., priority 2011, dated 2020):

How the values were obtained:
Format in all cases: biochemical
[1] = Tau protease enzymatic activity of truncated tau peptides (general statement)
tau 4R2N trimer protease = target: T1, tau 4R2N trimer protease (Homo sapiens, UniProt P10636); assay: Peptide assay (tau peptide 335-353, reverse-phase HPLC) used to screen serine protease inhibitors; details: 1 mM PMSF (also printed 1 μM), one hr at room temperature before peptide substrate
T1 construct: Stabilization buffer enables production of full length monomer, dimer and trimer for tau protease; made in house; host or cells: E. coli BL21 (DE3) Gold
T1 sequence (P10636 1-441 isoform P10636-8): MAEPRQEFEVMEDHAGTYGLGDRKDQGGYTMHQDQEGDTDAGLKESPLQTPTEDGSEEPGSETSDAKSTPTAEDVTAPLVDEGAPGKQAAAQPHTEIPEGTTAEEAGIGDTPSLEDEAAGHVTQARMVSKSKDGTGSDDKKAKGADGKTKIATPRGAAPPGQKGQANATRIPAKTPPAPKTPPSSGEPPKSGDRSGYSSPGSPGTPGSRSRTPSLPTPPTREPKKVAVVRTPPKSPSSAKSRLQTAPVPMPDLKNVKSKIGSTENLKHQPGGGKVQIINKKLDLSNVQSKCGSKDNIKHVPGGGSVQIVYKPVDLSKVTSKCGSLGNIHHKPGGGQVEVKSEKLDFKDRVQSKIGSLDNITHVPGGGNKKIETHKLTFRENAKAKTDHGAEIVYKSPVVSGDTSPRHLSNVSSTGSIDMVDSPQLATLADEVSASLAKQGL
From the text: N-terminal sequencing of fragments using mass spectrometry identified autoproteolytic cut sites. In particular, cutting at the Lys340-Ser341 (340KS341) cut site occurred readily. Therefore, a 19-amino acid peptide corresponding to amino acids 335G to 353L of tau protein was synthesized that contained the KS cut site (340KS341). The reaction was monitored by reverse-phase high-pressure liquid chromatography (HPLC). […] An asterisk marks a non-specific contaminant that was used as a marker. […] 10 μg of tau peptide 335-353 ([…]) (SEQ ID NO:19) was custom synthesized by Genscript (Piscataway, N.J., USA) and 1 mg was dissolved in 1 mL of buffer (25 mM Tris-HCl pH 7.4). […] of peptide was incubated with 11 μg of tau trimer protease in 30 μL buffer 20 hr at 37° C. and analyzed by HPLC [SystemGold® 32Karat™ LC-CE System, Beckman Coulter, Inc., (Indianapolis, Ind.)] using a linear gradient of acetonitrile in 0.1% TFA 0-60% acetonitrile on an analytical C18 column (12.5 cm×2.1 mm, 5 μm, (Supelco, Bellefonte, Pa., USA). 30 μg of peptide was incubated without tau protease as a negative control and analyzed with the same method;
The peptide assay for tau 4R2N trimer activity described in FIG. 5 was used to screen a series of serine protease inhibitors. 1 mM AEBSF was incubated with tau 4R2N trimer for 1 hr at room temperature before addition of the peptide substrate. […] The asterisk indicates an artifactual peak unrelated to the peptide;

[2] = system: tau protein from a specimen of Alzheimer's brain; assay: FP-TAMRA labeling of tau immunopurified from AD brain; details: AD brain lysate treated with PMSF before 2 μM FP-TAMRA probe
From the text: Serine hydrolases include a class of enzymes that include serine proteases. The serine hydrolase superfamily is one of the largest known enzyme families that share a catalytic mechanism that involves a serine nucleophile. Phenylmethanesulfonyl fluoride (PMSF) irreversibly binds to the active site serine of serine hydrolases to inactivate their enzymatic activity and prevents the probe from labeling them. […] Protein was extracted from an AD brain by Dounce homogenization in TPER buffer (ThermoFisher Scientific) with 1 mM EDTA, 1 μg/mL pepstatin A, […] phosphoramidon, phosphatase inhibitor (ThermoFisher Scientific). The lysate was cleared by centrifugation at 10,000×g for 20 min. The supernatant was depleted for biotin using Streptavidin-agarose (ThermoFisher Scientific). A probe specific for active serine hydrolases, fluorophosphonate (FP) labeled with a fluorescent carboxytetramethylrhodamine (TAMRA) tag (ThermoFisher Scientific), was incubated with the lysate at a final concentration of 2 μM. As a control for non-specific labeling, a portion of the lysate was treated with phenylmethanesulfonyl fluoride (PMSF), an irreversible inhibitor of serine hydrolases, including tau protease, before using the FP-TAMRA probe. Biotinylated monoclonal antibody HT7 (ThermoFisher Scientific) was used to capture total tau from the lysate with streptavidin-agarose beads (ThermoFisher Scientific). […]

Compound	tau protease enzymatic activity [1]	inhibition of cleavage of the peptide (FIG. 14E) (tau 4R2N trimer protease)	FP-TAMRA labeling of immunocaptured protein bands [2]
TP-118: 118 amino acid truncated tau peptide, 4R2N 268-385 (SEQ ID NO:2)	retain tau protease enzymatic activity		
O=S(=O)(F)Cc1ccccc1 [PMSF, phenylmethanesulfonyl fluoride]		strongly inhibited	reduced labeling
